Results as given in ChEMBL document CHEMBL5543174, “A Nonbactericidal Anionic Antimicrobial Peptide Provides Prophylactic and Therapeutic Efficacies against Bacterial Infections in Mice by Immunomodulatory-Antithrombotic Duality” (J Med Chem, 2024).
Calls of active or inactive are those of the source.

What was measured:
Acinetobacter junii = experiment: Antimicrobial activity against Acinetobacter junii ATCC 17908 assessed as inhibition of microbial growth at <= 200 ug/ml incubated for 18 hrs by micro-broth dilution method; assay type: functional, organism-based; details: dose <= 200.0 µg/ml
Bacillus subtilis = experiment: Antimicrobial activity against Bacillus subtilis ATCC6633 assessed as inhibition of microbial growth at <= 200 ug/ml incubated for 18 hrs by micro-broth dilution method; assay type: functional, organism-based; details: dose <= 200.0 µg/ml
Staphylococcus aureus [1] = experiment: Antimicrobial activity against Staphylococcus aureus ATCC 25923 assessed as inhibition of microbial growth at <= 200 ug/ml incubated for 18 hrs by micro-broth dilution method; assay type: functional, organism-based; details: dose <= 200.0 µg/ml
Staphylococcus aureus [2] = experiment: Antimicrobial activity against Methicillin-resistant Staphylococcus aureus assessed as reduction in microbial colony forming unit at 200 ug/ml incubated for 1 to 4 hrs by time-kill kinetics based analysis; assay type: functional, organism-based; details: dose 200.0 µg/ml, time 1-4 hrs
Staphylococcus aureus [3] = experiment: Antibacterial activity against Staphylococcus aureus ATCC 25923 infected in C57BL/6 mouse assessed as reduction in IL-6 level in peritoneal fluid at 10 mg/kg,ip pre-administrated 5 hrs before bacterial infection measured after 24 hrs by ELISA; assay type: functional, organism-based; details: time 29.0 hrs
Staphylococcus aureus [4] = experiment: Antibacterial activity against Staphylococcus aureus ATCC 25923 infected in C57BL/6 mouse assessed as reduction in IL-1beta level in peritoneal fluid at 10 mg/kg,ip pre-administrated 5 hrs before bacterial infection measured after 24 hrs by ELISA; assay type: functional, organism-based; details: time 29.0 hrs
Staphylococcus aureus [5] = experiment: Antibacterial activity against Methicillin-resistant Staphylococcus aureus infected in C57BL/6 mouse assessed as reduction in IL-1beta level in peritoneal fluid at 10 mg/kg,ip pre-administrated 5 hrs before bacterial infection measured after 24 hrs by ELISA; assay type: functional, organism-based; details: time 29.0 hrs
Staphylococcus aureus [6] = experiment: Antibacterial activity against Methicillin-resistant Staphylococcus aureus infected in C57BL/6 mouse assessed as reduction in TNF-alpha level in peritoneal fluid at 10 mg/kg,ip administrated 5 hrs after bacterial infection measured after 24 hrs by ELISA; assay type: functional, organism-based; details: time 19.0 hrs
Staphylococcus aureus [7] = experiment: Antibacterial activity against Staphylococcus aureus ATCC 25923 infected in C57BL/6 mouse assessed as reduction in TNF-alpha level in serum at 10 mg/kg,ip administrated 5 hrs after bacterial infection measured after 24 hrs by ELISA; assay type: functional, organism-based; details: time 19.0 hrs
Escherichia coli [8] = experiment: Antibacterial activity against Escherichia coli ATCC 25922 infected in C57BL/6 mouse assessed as reduction in IL-6 level in serum at 10 mg/kg,ip administrated 5 hrs after bacterial infection measured after 24 hrs by ELISA; assay type: functional, organism-based; details: time 19.0 hrs
Staphylococcus aureus [9] = experiment: Antibacterial activity against Methicillin-resistant Staphylococcus aureus infected in C57BL/6 mouse assessed as reduction in IL-1beta level in serum at 10 mg/kg,ip pre-administrated 5 hrs before bacterial infection measured after 24 hrs by ELISA; assay type: functional, organism-based; details: time 29.0 hrs
Staphylococcus aureus [10] = experiment: Antibacterial activity against Staphylococcus aureus ATCC 25923 infected in C57BL/6 mouse assessed as increase in survival rate at 10 mg/kg,ip pre-administrated 5 hrs before bacterial infection measured after 7 days; assay type: functional, organism-based; details: time 7.0 day
Escherichia coli [11] = experiment: Antibacterial activity against Carbapenem-resistant Escherichia coli infected in C57BL/6 mouse assessed as increase in survival rate at 10 mg/kg,ip pre-administrated 5 hrs before bacterial infection measured after 7 days; assay type: functional, organism-based; details: time 7.0 day
Mus musculus [12] = experiment: Immunomodulatory activity in cyclophosphamide immunosuppressed C57BL/6 mouse with neutrophil depletion model assessed as increase in number of neutrophil in peritoneal lavage at 10 mg/kg,ip administration measured after 12 hrs by flow cytometry; assay type: functional, organism-based
Mus musculus [13] = experiment: Immunomodulatory activity in clodronate liposome immunosuppressed C57BL/6 mouse with monocyte depletion model assessed as increase in number of monocyte in peritoneal lavage at 10 mg/kg,ip administration measured after 5 hrs by flow cytometry; assay type: functional, organism-based
Mus musculus [14] = experiment: Immunomodulatory activity in clodronate liposome immunosuppressed C57BL/6 mouse with monocyte depletion model assessed as increase in number of monocyte in peritoneal lavage at 10 mg/kg,ip administration measured after 12 hrs by flow cytometry; assay type: functional, organism-based
Mus musculus [15] = experiment: Immunomodulatory activity in cyclophosphamide immunosuppressed C57BL/6 mouse with neutrophil depletion model assessed as increase in number of neutrophil in peritoneal lavage at 10 mg/kg,ip administration measured after 24 hrs by flow cytometry; assay type: functional, organism-based
Mus musculus [16] = experiment: Immunomodulatory activity in clodronate liposome immunosuppressed C57BL/6 mouse with monocyte depletion model assessed as increase in number of monocyte in peritoneal lavage at 10 mg/kg,ip administration measured after 24 hrs by flow cytometry; assay type: functional, organism-based
Mus musculus [17] = experiment: Immunomodulatory activity in cyclophosphamide immunosuppressed C57BL/6 mouse with neutrophil depletion model assessed as change in B-lymphocytes in peritoneal lavage at 10 mg/kg,ip administration measured after 5 to 24 hrs by flow cytometry; assay type: functional, organism-based; details: time 5-24 hrs
Neutrophil [18] = experiment: Induction of phagocytosis in mouse bone marrow derived neutrophil cultured with CFSE-labeled Methicillin-resistant Staphylococcus aureus incubated for 1.5 hrs followed by bacterial exposure for 1 hr by flow cytometry; assay type: functional, cell-based; details: time 2.5 hrs
Neutrophil [19] = experiment: Induction of degranulation in mouse bone marrow derived neutrophil assessed as increase in CRAMP release at 25 to 100 ug/ml incubated for 6 hrs by ELISA; assay type: functional, cell-based; details: dose 25-100 µg/ml
Neutrophil [20] = experiment: Induction of degranulation in mouse bone marrow derived neutrophil assessed as increase in lactoferrin release at 25 to 100 ug/ml incubated for 6 hrs by ELISA; assay type: functional, cell-based; details: dose 25-100 µg/ml
[21] = tested on: Peritoneal macrophage cell; experiment: Induction of chemotaxis in mouse Peritoneal macrophage assessed as increase in macrophage migration at 100 ug/ml preincubated with KN62 for 30 mins followed by compound addition measured after 8 hrs by crystal violet staining based indirect transwell assay; assay type: functional, cell-based; details: dose 100.0 µg/ml
Peritoneal macrophage [22] = experiment: Induction of chemotaxis in mouse Peritoneal macrophage assessed as upregulation of CXCL1 production at 100 ug/ml preincubated with WRW4 followed by compound addition by ELISA; assay type: functional, cell-based; details: dose 100.0 µg/ml
Peritoneal macrophage [23] = experiment: Induction of chemotaxis in mouse Peritoneal macrophage assessed as upregulation of MCP-1 production at 100 ug/ml preincubated with MTS510 followed by compound addition by ELISA; assay type: functional, cell-based; details: dose 100.0 µg/ml
Peritoneal macrophage [24] = experiment: Immunoregulatory activity in mouse Peritoneal macrophage assessed as upregulation of p38 phosphorylation incubated for 1 hr by Western blotting analysis; assay type: functional, cell-based
Peritoneal macrophage [25] = experiment: Immunoregulatory activity in mouse Peritoneal macrophage assessed as upregulation of IkappaBalpha phosphorylation incubated for 1 hr by Western blotting analysis; assay type: functional, cell-based
Mus musculus [26] = experiment: Antithrombotic activity in BALB/c mouse dorsal skin defect model assessed as increase in skin bleeding time at 30 mg/kg,SC administration; assay type: functional, organism-based
Plasma = experiment: Anticoagulation activity in human platelet poor plasma assessed as elongation of activated partial thromboplastin time at 100 ug/ml measured after 5 mins; assay type: functional, cell-free; details: dose 100.0 µg/ml
Mus musculus [27] = experiment: Anticoagulation activity in mouse infected with Methicillin-resistant Staphylococcus aureus assessed as increase in plasma AT-III expression at 10 mg/kg,ip administrated 5 hrs after bacterial infection measured after 24 hrs by ELISA; assay type: functional, organism-based; details: time 19.0 hrs
Mus musculus [28] = experiment: Anticoagulation activity in mouse infected with Carbapenem-resistant Escherichia coli assessed as increase in plasma AT-III expression at 10 mg/kg,ip pre-administrated 5 hrs before bacterial infection measured after 24 hrs by ELISA; assay type: functional, organism-based; details: time 29.0 hrs

Measured: Activity

CC[C@H](C)[C@H](NC(=O)[C@@H]1CSSC[C@H](NC(=O)[C@H](CCC(=O)O)NC(=O)[C@@H](NC(=O)[C@H](CCCCN)NC(=O)[C@H](Cc2c[nH]cn2)NC(=O)[C@@H](NC(=O)[C@H](CCCCN)NC(=O)[C@H](CCC(=O)O)NC(=O)[C@H](C)NC(=O)[C@H](CCC(=O)O)NC(=O)[C@H](CCC(=O)O)NC(=O)[C@H](CCC(=O)O)NC(=O)[C@H](C)N)[C@@H](C)O)[C@@H](C)O)C(=O)N[C@@H](CC(C)C)C(=O)N[C@@H](CCC(=O)O)C(=O)N1)C(=O)N[C@@H](Cc1ccccc1)C(=O)N[C@H](C(=O)N[C@@H](CC(C)C)C(=O)N[C@@H](CC(C)C)C(=O)N1CCC[C@H]1C(=O)N1CCC[C@@H]1C(=O)N[C@H](C)C(=O)O)[C@@H](C)O
active: Staphylococcus aureus [3] | Staphylococcus aureus [4] | Staphylococcus aureus [5] | Staphylococcus aureus [6] | Staphylococcus aureus [7] | Escherichia coli [8] | Staphylococcus aureus [9] | Staphylococcus aureus [10] | Escherichia coli [11] | Mus musculus [12] | Mus musculus [13] | Mus musculus [14] | Neutrophil [18] Dose-Dependent Effect | Neutrophil [19] | Neutrophil [20] | [21] | Peritoneal macrophage [22] | Peritoneal macrophage [23] | Peritoneal macrophage [24] Dose-Dependent Effect | Peritoneal macrophage [25] Dose-Dependent Effect | Mus musculus [27] | Mus musculus [28]
inactive: Acinetobacter junii | Bacillus subtilis | Staphylococcus aureus [1] | Staphylococcus aureus [2] | Mus musculus [15] | Mus musculus [16] | Mus musculus [17] | Mus musculus [26] | Plasma
